According to US9625448B2, “Double caged GABA compounds, bis-CNB-GABA” (The Trustees of Princeton University, priority 2014, dated 2017):

How the values were obtained:
physchem = type: physicochemical; conditions: pH 7, aqueous buffer, thermodynamic from solid
Text: Solubility data was important to obtain before attempting to use the compound in neural tissue. This was accomplished by dissolving a known amount of bis-CNB-GABA in pH 7.0 phosphate buffer solution.

[1] = Absorbance spectrum / extinction coefficient; type: physicochemical; conditions: for extinction coefficient: at 262 nm
Procedure: Following successful synthesis of bis-CNB-GABA, it was necessary to quantify extinction coefficient and quantum yield. […] Referring to FIG. 32, the first was accomplished simply by taking an absorbance spectrum of the compound. Extinction coefficient was then calculated from Beer's law.

[2] = system: cerebellar molecular layer interneurons; assay: Photolysis-evoked GABAergic currents in cerebellar molecular layer interneurons; type: cell-based
Procedure: The biological properties of our synthetic bis-CNB-GABA were evaluated using whole-cell patch recording from cerebellar molecular layer interneurons.
FIGS. 42A-42E illustrate physiological responses to photolysis of bis-CNB-GABA. FIG. 42A illustrates a cerebellar molecular layer interneuron visualized using Alexa 488 in the patch recording electrode solution. Referring to FIG. 42A, bis-CNB-GABA (0.6 mM) was photolyzed with a 405 nm laser spot in 3 different locations (indicated by 1, 2 and 3). Still referring to FIG. 42A, laser-evoked GABAergic currents are shown on the right panel. Still referring to FIG. 42A, gray traces show individual sweeps and black traces are averages. Still referring to FIG. 42A, the gray sweep at bottom indicates the laser flash (1 ms duration, intensity 5 mW) as recorded using a photodiode. FIG. 42B illustrates bis-CNB-GABA (1.4 mM) was photolyzed with a […] LED at progressively higher flash energies (0.25-1.1 mW, 5-50 ms, 1.25-55 μJ). FIG. 42C illustrates the same experiment as shown in FIG. 42B with Responses to mono-CNB-GABA (50 μM). FIG. 42D illustrates normalized current as a function of relative LED flash energies plotted on a log-log scale. FIG. 42E illustrates laser-evoked whole-cell current recorded in the absence and presence of 3 μM gabazine, a GABA receptor antagonist. Referring to FIG. 42E, a larger flash energy was used in the presence of gabazine.
Referring to FIG. 42A, molecular layer interneurons receive excitatory glutamatergic synapses, as well as inhibitory GABAergic synapses that show a pronounced level of spontaneous activity (gray traces). The effects of bis-CNB-GABA on these synaptic currents were tested.
By contrast, the relationship for mono-O-CNB-GABA was close to linear (log-log slope=1.3±0.1, n=3). For these measurements, evoked currents were normalized to the maximum current observed in the same neuron. […] These power laws are consistent with a process in which each molecule of bis-CNB-GABA must cumulatively undergo two uncaging reactions in order to release an active GABAA agonist.
To test whether bis-CNB-GABA-evoked responses resemble physiological events in their kinetics, we measured the kinetic properties of flash responses. […] This rise time is consistent with the dark reaction time (1.5 ms) for the slower cage, N-mono-CNB-GABA (Wieboldt, R.; Ramesh, D.; Carpenter, B. K; Hess, G. P. Biochemistry, 1994, 33, 1526-1533, which is incorporated herein by reference as if fully set forth). […] These rates approach those of spontaneous events and are among the fastest described for other GABA cages. […]

GABAA receptors = assay: Monosynaptic IPSC, whole-cell patch clamp of dentate granule cells of rat hippocampal slices (Molnár & Nadler, 2000); type: cell-based
Procedure: FIGS. 25A-25B illustrate CNB-GABA depressed in a concentration-dependent manner the monosynaptic IPSC evoked by stimulation of the molecular layer as was observed by Molnár & Nadler, 2000. Referring to FIGS. 2A-25B, stimuli were delivered every 30 s. […] FIG. 25B illustrates cumulative concentration-response curve. Referring to FIG. 25B, the IC for CNB-GABA was essentially the same in the absence (28±9 mM, mean±S.D., n=5) and presence (32±13 mM, mean±S.D., n=4) of the GABAB receptor antagonist CGP 55845A. (Molnár & Nadler, 2000 European Journal of Pharmacology, 391, 255-262, which is incorporated herein by reference as if fully set forth).
FIG. 26 illustrates whole-cell patch clamp recordings from dentate granule cells of rat hippocampal slices reported by Molnár & Nadler, 2000. […] Holding potential of −80 mV. (Molnár & Nadler, 2000 European Journal of Pharmacology, 391, 255-262, which is incorporated herein by reference as if fully set forth, which is incorporated herein by reference as if fully set forth). […] FIG. 27 illustrates summary of the amplitudes of the current evoked by puff of 100 μM GABA and caged compounds around the soma reported by Matsuzaki et al., 2010. The amplitude was normalized to the mean current that was induced by GABA application alone. Left panel illustrates control (n=7); +10 mM CNI-GABA (n=7). […]

dentate granule cells = system: dentate granule cells; set-up: dose or concentration left out as unconfirmed; conditions: holding potential −80 mV; cited from earlier work
[3] = at 24 hr; prior report; cited from earlier work

| SMILES | solubility (physchem) [mM] | wavelength of maximal absorbance [1] [nm] | extinction coefficient ([1]; listed as Bis-CNB GABA) | extinction coefficient ([1]; listed as Bis-CNB-GABA) [M⁻¹ cm⁻¹] | rise time of GABA-induced currents upon photolysis ([2]; FIGS. 38A-38D) | 10-90% rise time of flash responses ([2]; responses comparable in size with spontaneous IPSCs, flash 1.0 ms, n=10) [ms] | concentration required to generate 33% reduction in response (GABAA receptors) [µM] | IC33 (GABAA receptors; Table 1, calculated, q=0.33, in mM) | effect on EPSC evoked by stimulation of the perforant path (dentate granule cells) | conversion in the dark [3] [%] |
| --- | --- | --- | --- | --- | --- | --- | --- | --- | --- | --- |
| O=C(CCCNC(C(=O)O)c1ccccc1[N+](=O)[O-])OC(C(=O)O)c1ccccc1[N+](=O)[O-] (stereo not shown) [bis-CNB-GABA, 2-((4-(Carboxy(2-nitrophenyl)methoxy)-4-oxobutyl)amino)-2-(2-nitrophenyl)acetic acid] | ≤ 17 | 262 | 7,550 M^−1 cm^−1 | 7550 | approximately 2 ms | 2.2±0.6 | – | – | – | – |
| NCCCC(=O)OC(C(=O)O)c1ccccc1[N+](=O)[O-] (stereo not shown) [mono-CNB-GABA] | – | – | – | – | – | – | 14 | 0.014 | did not significantly affect | < 1 |
